“Also recorded” adds a separate entry of the source.
How the values were obtained:
Format in all cases: cell-based
HEK293 cells = assay: Blue light induced stress granules: staining for stress granule markers and mRNA; details: blue light stimulation
From the text: FIGS. 2A-2B. Blue light induced stress granules using a NcVVDY50W-G3BP1 protein arrangement. […] A DNA arrangement that generates the NcVVDY50W-G3BP1 was developed and expressed in HEK293 cells. Under normal conditions, the NcVVDY50W-G3BP1 remains diffuse in the cytoplasm. When endogenous stress granule formation is induced with heat shock, the NcVVDY50W-G3BP1 forms stress granules that stain positive for key markers including Ataxin-2 and TIAR.
FIG. 5. […] Under normal conditions, G3BP1-NcVVDY50W remains diffuse in the cytoplasm. When endogenous stress granule formation is induced with NaAsO2 (0.5 mM, 30 min treatment), the G3BP1-NcVVDY50W forms stress granules that stain positive for key markers TDP-43 and eIF4G. […] As an example of this technology, DNA arrangements were developed that generated G3BP1-NcVVDY50W, and expressed in HEK293 cells. Under normal conditions, the G3BP1-NcVVDY50W remains diffuse in the cytoplasm. When endogenous stress granule formation is induced with sodium arsenite, the G3BP1-NcVVDY50W forms stress granules that probe positive for key markers, including TDP-43 and eIF4G. […] Inserts are 3D images of stress granules indicated by arrows.
While stress granule dynamics are shown to be altered in these diseases, the true contributions of stress granules to disease pathobiology is unknown since the only current method to form these organelles is to introduce an extracellular stressor (e.g. heat stress at 43° C., exposure to sodium arsenite) which is toxic to cells and ultimately kills the cells being studied. The longest studies of stress granules to date are only on the order of a few hours and so, the importance of these organelles in the initiation of neurodegeneration or cancer cannot be assessed. Therefore, a method to control stress granule formation was developed using light, without the need for any extracellular stressors. To achieve this, the DNA encoding specific photoreceptor protein domains that self-bind with blue light exposure were linked to the DNA of a key protein required for the formation of stress granules, G3BP1 or TIA1. These arrangements were then expressed in HEK293 cells and were tested for their ability to form functional stress granules with various blue light treatment paradigms. It was shown that the LOV photoreceptor domain, from the Vivid protein of N. crassa, which is known to dimerize with blue light exposure, when fused to G3BP1 and exposed to 15-1080 min of 465 nm light at 0.1-1.0 mW/cm2 initiates the formation of a core stress granule structure consisting of the photoreceptors fused to G3BP1 that recruits additional G3BP1 and accessory proteins that comprise stress granules and allow for their maturation. This likely involved the liquid-liquid phase separation (LLPS) and dimerization and oligomerization of G3BP1 (concept represented in FIG. 1).

protein synthesis = assay: De novo protein synthesis, HPG incorporation with Click-iT detection
Protocol: FIGS. 14A-14B. […] The major function of endogenous stress granules is to bind mRNAs and halt protein synthesis until the cellular stress is removed. To test this, cells expressing G3BP1-NcVVDY50W were either exposed to blue light stimulation or not for 30 minutes and protein translation was assessed. Prior to the translation assay, cells were treated with cyclohexamide for one hour to inhibit protein synthesis and then the cyclohexamide was removed and cells were provided L-Homopropargylglycine (HPG) for one hour. HPG acts as a methionine amino acid analog and is incorporated into newly synthesized proteins. Click-iT™ chemistry was then performed to detect HPG and cells were imaged. Green signal indicates newly synthesized proteins during the time at which HPG is present in the media.
FIGS. 24A-24E. Replacing the G3BP1 NTF2 domain, which is required for G3BP1 self-oligomerization (optoSG), with oligomerizing photoreceptors, is sufficient to initiate the formation of optogenetic stress granules. FIG. 24A) Schematics of an additional approach to seed optoStress Granules (optoSGs) employing truncated G3BP1 protein and replacing the NTF2 oligomerizing domain with a photoreceptor with the capacity to oligomerize (in this instance Cry2-PHR, but also works with chronic stimulation of dimerizing photoreceptor). FIG. 24B) HEK cells expressing Cry2 PHR-[…]NTF-G3BP1 were exposed to blue light LED stimulation for 30 minutes to induce the formation of optoSGs.

phospho-eIF2a and ATF4 = assay: Western blotting for integrated stress response (ISR) components; details: total protein of cells with blue light induced stress granules
From the text: FIGS. 21A-21B. […] Total cellular protein from blue light induced stress granules using G3BP1-NcVVDY50W protein arrangement was collected.

[1] = system: ReNCell differentiated cortical neuron-like cells; assay: Blue light induced stress granules in ReNCell differentiated cortical neuron-like cells
From the text: FIG. 20. Blue light induced stress granules using a G3BP1-NcVVDY50W protein arrangement in ReNCell differentiated cortical neuron-like cells. A DNA arrangement that generates the G3BP1-NcVVDY50W was developed and expressed in ReNCell differentiated cortical neuron-like cells. To confirm differentiation of ReN cells to cortical neuron-like cells, cultures were probed for MAP2, a protein that is only expressed in neurons. Under normal conditions, the NcVVDY50W-G3BP1 remains diffuse in the cytoplasm.

G3BP1-NcVVDY50W: G3BP1 Full Length Protein with NcVivid Y50W, SEQ ID NO: 16
colocalization of blue light induced stress granules with stress granule markers (HEK293 cells): colocalize with the key translation factor eIF4G, and the stress granule marker Ataxin-2; also recorded: colocalize with the key stress granule markers TIAR and G3BP; also recorded: probe positive for TDP-43 and eIF4G; also recorded: colocalize with the key stress granule markers RPS6 and eIF4G (FIG. 6A), as well as Ataxin-2 and RPS3; also recorded: colocalize with the key stress granule markers PABPC1 and G3BP (FIG. 7A), as well as eIF3H and eIF4G; also recorded: colocalize with the key stress granule markers FUS and G3BP; also recorded: colocalize with the key stress granule marker Ataxin-2, but not RPL36a
mRNA sequestration by blue light induced stress granules (HEK293 cells): sequester cytoplasmic mRNA
reduction in protein synthesis with light-induced stress granules (protein synthesis; blue light stimulation 30 minutes, HPG for one hour): 40%
protein synthesis (HPG signal) with light-induced stress granules (protein synthesis; blue light stimulation, Click-iT detection): little to no HPG signal
induction of cell stress (phospho-eIF2a, ATF4) (phospho-eIF2a and ATF4): do not induce a cell stress
colocalization of blue light induced stress granules with Ataxin-2 [1]: colocalize with the key stress granule marker Ataxin-2

Source: patent publication US20250313849A1, “OPTOGENETIC INDUCTION OF MEMBRANELESS ORGANELLES” (UNIVERSITY OF PITTSBURGH-OF THE COMMONWEALTH SYSTEM OF …, priority 2017, published 2025)
